Tests used:
Carboxypeptidase A1 = target: T1, Carboxypeptidase A1 (Homo sapiens, UniProt P15085); experiment: Inhibition of Carboxypeptidase A assessed as amount of Cl-CPL consumed by UV spectrometer
T1 sequence (P15085 whole entry): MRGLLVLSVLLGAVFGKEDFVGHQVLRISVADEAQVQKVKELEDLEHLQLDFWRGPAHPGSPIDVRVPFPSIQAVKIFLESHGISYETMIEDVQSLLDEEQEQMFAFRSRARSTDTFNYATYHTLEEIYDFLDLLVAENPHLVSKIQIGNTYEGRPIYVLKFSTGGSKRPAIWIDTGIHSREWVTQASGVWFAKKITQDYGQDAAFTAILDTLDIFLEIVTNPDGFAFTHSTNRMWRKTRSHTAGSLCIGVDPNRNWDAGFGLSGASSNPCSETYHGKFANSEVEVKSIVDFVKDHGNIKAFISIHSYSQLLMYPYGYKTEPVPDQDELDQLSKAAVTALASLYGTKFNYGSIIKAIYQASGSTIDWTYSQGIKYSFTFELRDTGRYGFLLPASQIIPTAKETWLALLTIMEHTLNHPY

[1] = Dissociation constant, pKa of the compound; assay type: physicochemical

Row | Structure (SMILES) | Ki (Carboxypeptidase A1) [µM] | pKa [1]
1 | O=C(CC(Cc1ccccc1)C(=O)O)C[N+](=O)[O-] (racemic) | 0.43 | –
2 | O=C(C[C@@H](Cc1ccccc1)C(=O)O)C[N+](=O)[O-] | 0.16 | –
3 | O=C(O)C[N+](=O)[O-] [NITROACETIC ACID] | – | 1.68
4 | O=C(O)C(CC(=O)C(F)(F)F)Cc1ccccc1 (racemic) | 0.2 | –

Further lines, with some results ahead:

Row | Ki (Carboxypeptidase A1) [µM] | Structure (SMILES) | pKa [1]
5 | 15 | O=C(CBr)CC(Cc1ccccc1)C(=O)O (racemic) | –
6 | 31 | O=C(C[C@H](Cc1ccccc1)C(=O)O)C[N+](=O)[O-] | –
7 | 207 | CC(=O)CC(Cc1ccccc1)C(=O)O (racemic) | –

Reference: ChEMBL document CHEMBL1155339, “Characterization of alpha-nitromethyl ketone as a new zinc-binding group based on structural analysis of its complex with carboxypeptidase A” (Bioorg Med Chem Lett, 2009)
